For orientation: IC50 means the concentration that gives 50% inhibition. As a reminder, the EC50 is the midpoint of the concentration-response curve.

Experiment [1] deals with T1, Li-TryR dimeric form (Leishmania infantum, UniProt A4HSF7). As to conditions: background, ChemBioChem, 2013, 14(10), 1212-1217; cited from earlier work.
For experiment [2], the target named is recombinant Li-TryR (Leishmania infantum, UniProt A4HSF7). Nature of the experiment: Li-TryR oxidoreductase activity assay. It is filed as biochemical. How it is done: Oxidoreductase activity was determined according to the method described by Hamilton et al. (Biochem. J., 2003, 369, 529-537). Briefly, reactions were carried out at 26 °C (250 µL) of HEPES pH 8.0 (40 mM) buffer containing EDTA (1 mM), NADPH (150 µM), NADP+ (30 µM), DTNB (25 µM), T[S]2 (1 µM), glicerol (0.02%), DMSO (1.5%) and recombinant Li-TryR (7 nM). […] Enzyme activity was monitored by the increase in absorbance at 412 nm for 1 h at 26 °C in a VERSAmax microplate reader (Molecular Devices, California, USA). All the assays were conducted in triplicate in at least three independent experiments. Data were analyzed using a non-linear regression model with the Grafit6 software (Erithacus, Horley, Surrey, UK).
recombinant Li-TryR, sequence (A4HSF7 entry or part of it): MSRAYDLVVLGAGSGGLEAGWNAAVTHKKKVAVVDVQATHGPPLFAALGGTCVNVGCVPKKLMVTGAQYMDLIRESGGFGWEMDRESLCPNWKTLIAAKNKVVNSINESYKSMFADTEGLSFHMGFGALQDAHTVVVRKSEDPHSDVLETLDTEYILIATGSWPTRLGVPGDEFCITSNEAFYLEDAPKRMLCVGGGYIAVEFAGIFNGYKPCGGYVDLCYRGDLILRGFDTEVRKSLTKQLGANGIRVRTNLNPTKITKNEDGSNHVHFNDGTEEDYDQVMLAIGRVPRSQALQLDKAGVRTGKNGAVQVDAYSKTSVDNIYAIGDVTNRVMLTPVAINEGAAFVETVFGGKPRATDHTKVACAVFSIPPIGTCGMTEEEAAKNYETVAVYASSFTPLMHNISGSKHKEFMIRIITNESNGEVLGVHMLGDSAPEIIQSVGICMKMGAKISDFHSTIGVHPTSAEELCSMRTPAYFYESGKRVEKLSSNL

Experiment [3] relates to L. infantum axenic amastigotes. Nature of the experiment: Leishmanicidal activity on axenic amastigotes (PI exclusion, flow cytometry). Type of experiment: cell-based. The following applies: Leishmania infantum, 24 h. The protocol: L. infantum axenic amastigotes were grown in M199 (Invitrogen, Leiden, The Netherlands) medium supplemented with 10% heat inactivated FCS, 1 g/L β-alanine, 100 mg/L L-asparagine, 200 mg/L sacarose, 50 mg/L sodium pyruvate, 320 mg/L malic acid, 40 mg/L fumaric acid, 70 mg/L succinic acid, 200 mg/L α-ketoglutaric acid, 300 mg/L citric acid, 1.1 g/L sodium bicarbonate, 5 g/L MES, 0.4 mg/L hemin, 10 mg/L gentamicine pH 5.4 at 37 °C. THP-1 cells were grown in RPMI-1640 medium (Gibco, Leiden, The Netherlands) supplemented with 10% heat inactivated FCS, antibiotics, 1 mM HEPES, 2 mM glutamine and 1 mM sodium pyruvate, pH 7.2 at 37 °C and 5% CO2.
(§1) Drug treatment of amastigotes was performed during the logarithmic growth phase at a concentration of 1×10^6 parasites/mL at 37 °C for 24 h. Drug treatment of promastigotes was performed during the logarithmic growth phase at a concentration of 2×10^6 parasites/mL at 26 °C for 24 h. The percentage of living cells was evaluated by flow cytometry by the propidium iodide (PI) exclusion method.^17 Drug concentrations ranged from 0.2 µM to 25 µM.
(In general: A flow cytometer gives signals particle by particle.)

In experiment [4] the test system is HepG2 cells. In words: Cytotoxicity assay, HepG2 (crystal violet). Type of experiment: cell-based. As to conditions: Homo sapiens, HepG2, 24 h. How it is done: (§2) Human THP-1 monocytic cells were seeded at 1.2 x 10^5 cells/ml in 24-multidish plates (Nunc, Roskilde, Denmark) and differentiated to macrophages for 24 h in 1 ml of RPMI 1640 medium containing 10 ng/ml of phorbol 12-myristate 13-acetate (PMA) (Sigma-Aldrich, St. Louis, MO). Human HepG2 cells were seeded at 8 x 10^5 cells/ml in 24-multidish plates (Nunc, Roskilde, Denmark). After 24 h of drug treatment, both cell lines were washed with PBS and stained with violet crystal solution (0.2% in 2% ethanol) in for 10 min. at room temperature. After dye removal, cells were washed twice with water. Once dried, the wells were treated with 1% SDS for 30 min and the absorbance at 570nm was monitored in a plate reader. Table 2. EC50± SEM values for the compounds of formula I-A and I-B on L. infantum promastigotes, extracellular and intracellular amastigotes and cytotoxic activity in macrophage-differentiated THP-1 monocytes and HepG2 cell lines

The test system of experiment [5] is macrophage-differentiated THP-1 monocytes. In words: Cytotoxicity assay, macrophage-differentiated THP-1 (crystal violet). It is filed as cell-based. The following applies: Homo sapiens, THP-1, 24 h; read-out: EC50 (µM) THP-1 dif. How it is done: as §2
The target of experiment [6] is T1, Li-TryR dimeric form. In words: Dimer quantitation assay (ELISA), Li-TryR monomer displacement. It is filed as binding. The protocol: The stability of the Li-TryR dimeric form in the presence of the compounds was evaluated using an Enzyme-Linked ImmunoSorbent Assay (ELISA). Briefly a dual (HIS/FLAG) tagged Li-TryR (400 nM) was incubated in a dimerization buffer (200 µL 300 mM NaCl, 50 mM Tris pH 8.0) for 16 h at 37 °C with agitation and in a humid atmosphere in the presence of different peptide concentration (10 to 90 µM) in 1.5ml tubes. Next, the tubes were centrifuged at 30000 rcf and supernatants were disposed in anti-flag coated 96 well plates and incubated 30 min, at 37°C with gentle shaking. Then the plates were washed ten times with TTBS (Tween 0.1%, 2 mM Tris, 138 mM NaCl 138 pH 7.6) and incubated with diluted monoclonal α-HIS HRP conjugated antibody (200 µL, Abcam, Cambridge, UK) in BSA (5%) in TTBS for 1 h at room temperature. The plates were washed once again as previously described and 1,2-phenylenediamine dihydrochloride (OPD) substrate (100 µL, Dako, Glostrup, Denmark) prepared according to manufacturer's instructions was added. The enzymatic reaction was stopped after 10 min with H2SO4 (100 µL, 0.5 M) and the absorbances were measured at 490 nm in a VERSAmax microplate reader (Molecular Devices, California, USA). All the assays were conducted in triplicate in at least three independent experiments. Data were analyzed using a non-linear regression model with the Grafit6 software (Erithacus, Horley, Surrey, UK). Table 1. IC50 ± SEM values for target compounds of formula I-A and I-B in the oxidoreductase activity assays and in the Li-TryR monomer displacement

The subject of experiment [7] is L. infantum promastigotes. Nature of the experiment: Leishmanicidal activity on promastigotes (PI exclusion, flow cytometry). It is filed as cell-based. The following applies: Leishmania infantum, 24 h. How it is done: L. infantum promastigotes (MCAN/ES/ 89/IPZ229/1/89) were grown in RPMI-1640 medium (Sigma-Aldrich, St. Louis, MO, USA) supplemented with 10% heat-inactivated fetal calf serum (FCS), antibiotics, and 25 mm HEPES (pH 7.2) at 26 °C.
as §1

The test system of experiment [8] is L. infantum intracellular amastigotes. In words: Leishmania infection assay (intracellular amastigotes in THP-1 macrophages). Type of experiment: cell-based. The following applies: THP-1, 48 h. The protocol: Human THP-1 monocytic cells were seeded at 1.2 x 10^5 cells/ml in 24-multidish plates (Nunc, Roskilde, Denmark) and differentiated to macrophages for 24 h in 1 ml of RPMI 1640 medium containing 10 ng/ml of phorbol 12-myristate 13-acetate (PMA) (Sigma-Aldrich, St. Louis, MO). Medium culture was removed, and 1.2 x 10^6 Leishmania amastigotes in 1 ml of THP-1 medium were added to each well. Four hours later, the medium with non-infective amastigotes was completely removed, washed 3 times with 1 phosphate-buffered saline (PBS), and replaced with new THP-1 medium and the corresponding treatment. After 48 h of treatment, medium was removed; THP-1 cells were washed 3 times with 1xPBS and detached with TrypLE Express (Invitrogen, Leiden, The Netherlands) according to the manufacturer's indications. Infection quantification was measured by flow cytometry. Drug concentrations ranged from 0.2 µM to 25 µM.

Structures can show the parent of a compound that is named as a salt.

T1 sequence (A4HSF7 entry or part of it): as above

Regarding “PEIIQSVGIS-Nle-K-Nle: 13-mer linear peptide derived from an α-helix spanning residues P435 to M447 of Li-TryR; prototype dimerization inhibitor (C-terminal Nle-K-Nle)”, the Li-TryR dimerization inhibition entry in experiment [1] is listed as “low micromolar range”.
For `CC[n+]1nn(-c2ccc(-c3nc(CCc4ccc(-c5ccccc5)cc4)cs3)c(OCCN3CCNC3=O)c2)cc1CCCCN` [Compound 10f, 1-(4-(4-(2-([1,1'-Biphenyl]-4-yl)ethyl)thiazol-2-yl)-3-(2-(2-oxoimidazolidin-1-yl)ethoxy)phenyl)-4-(4-ammoniobutyl)-3-ethyl-1H-1,2,3-triazol-3-ium 2,2,2-trifluoroacetate trifluoromethanesulfonate], the IC50 stood at 3.88 ± 0.55 µM in experiment [2] and 87.06 ± 0.1 µM in experiment [6]. Further, the EC50 was found to be 15.5 ± 0.7 µM in experiment [3], 69.9 ± 2.97 µM in experiment [4], 19.9 ± 1.1 µM in experiment [5] and 6.03 ± 0.49 µM in experiment [7].
Consider `NCCCCc1cn(-c2ccc(-c3nc(CCc4ccc(-c5ccccc5)cc4)cs3)c(OCCN3CCNC3=O)c2)nn1` [Compound 8h, 1-(2-(2-(4-(2-([1,1'-Biphenyl]-4-yl)ethyl)thiazol-2-yl)-5-(4-(4-aminobutyl)-1H-1,2,3-triazol-1-yl)phenoxy)ethyl)imidazolidin-2-one 2,2,2 trifluoroacetate], for which the IC50 in experiment [2] was 11.6 ± 2.05 µM; in experiment [6], 5.94 ± 0.99 µM. Moreover, the EC50 in experiment [3] was 13.9 ± 0.93 µM; in experiment [4], 43.1 ± 2.65 µM; in experiment [5], 45.7 ± 0.6 µM; in experiment [7], 5.44 ± 0.44 µM.
Turning to `C[n+]1nn(-c2ccc(-c3nc(CCc4ccc5ccccc5c4)cs3)c(OCCN3CCNC3=O)c2)cc1CCCCN` [Compound 10c, 4-(4-Ammoniobutyl)-3-methyl-1-(4-(4-(2-(naphthalen-2-yl)ethyl)thiazol-2-yl)-3-(2-(2-oxoimidazolidin-1-yl)ethoxy)phenyl)-1H-1,2,3-triazol-3-ium 2,2,2-trifluoroacetate trifluoromethanesulfonate], the figures for the IC50 in experiment [2] and in experiment [6] were 2.67 ± 0.13 µM and 82.7 ± 2.4 µM, respectively. For the same molecule, the concentration giving a half-maximal response (EC50) in experiment [3] was 12.9 ± 0.51 µM; in experiment [4], no less than 75 µM; in experiment [5], no less than 75 µM; in experiment [7], 17.9 ± 3.76 µM.
On to `NCCCCc1cn(-c2ccc(-c3nc(CCc4ccccc4)cs3)c(OCCN3CCNC3=O)c2)nn1` [Compound 8e, 1-(2-(5-(4-(4-Aminobutyl)-1H-1,2,3-triazol-1-yl)-2-(4-phenethylthiazol-2-yl)phenoxy)ethyl)imidazolidin-2-one 2,2,2 trifluoroacetate], for which the EC50 in experiment [3] worked out at 13.9 ± 0.6 µM; in experiment [4], 20.4 ± 2.37 µM; in experiment [5] it was 27.2 ± 1.2 µM; in experiment [7], 30.54 ± 0.16 µM; in experiment [8] it was 33.6 ± 1.5 µM.
Regarding “PKIIQSVGIS-Nle-K-Nle: 13-mer linear peptide derived from an α-helix spanning residues P435 to M447 of Li-TryR; prototype dimerization inhibitor (C-terminal Nle-K-Nle)”, the Li-TryR dimerization inhibition entry in experiment [1] is listed as “low micromolar range”.
Consider `CC(C)(C)Cc1csc(-c2ccc(-n3cc(CCCCN)nn3)cc2OCCN2CCNC2=O)n1` [Compound 8b, 1-(2-(5-(4-(4-Aminobutyl)-1H-1,2,3-triazol-1-yl)-2-(4-neopentylthiazol-2-yl)phenoxy)ethyl)imidazolidin-2-one 2,2,2 trifluoroacetate], for which the IC50 in experiment [2] was 17.2 ± 1.69 µM; in experiment [6] it was greater than 75 µM. Also, the half-maximal effective concentration (EC50) in experiment [3] turned out to be 18.2 ± 0.4 µM; in experiment [7], 45 ± 3.51 µM; in experiment [8], 30.2 ± 1.7 µM.
`NCCCCc1cn(-c2ccc(-c3nc(CCc4ccc5ccccc5c4)cs3)c(OCCN3CCNC3=O)c2)nn1` [Compound 8g, 1-(2-(5-(4-(4-Aminobutyl)-1H-1,2,3-triazol-1-yl)-2-(4-(2-(naphthalen-2-yl)ethyl)thiazol-2-yl)phenoxy)ethyl)imidazolidin-2-one 2,2,2 trifluoroacetate]: the 50% inhibitory concentration (IC50) in experiment [2] amounted to 6.22 ± 1.01 µM; in experiment [6], 11.2 ± 0.41 µM. The EC50 was found to be 23 ± 1.86 µM in experiment [3]; 33.3 ± 2.7 µM in experiment [4]; 47.6 ± 3.3 µM in experiment [5]; 8.79 ± 0.75 µM in experiment [7]; 31.2 ± 1.9 µM in experiment [8].
On to `C[n+]1nn(-c2ccc(-c3nc(CCc4ccc(-c5ccccc5)cc4)cs3)c(OCCN3CCNC3=O)c2)cc1CCCCN` [Compound 10e, 1-(4-(4-(2-([1,1'-Biphenyl]-4-yl)ethyl)thiazol-2-yl)-3-(2-(2-oxoimidazolidin-1-yl)ethoxy)phenyl)-4-(4-ammoniobutyl)-3-methyl-1H-1,2,3-triazol-3-ium 2,2,2-trifluoroacetate trifluoromethanesulfonate], for which the half-maximal inhibitory concentration (IC50) in experiment [2] came to 5.19 ± 0.82 µM; in experiment [6] it was 23.8 ± 0.96 µM. Besides, the half-maximal effective concentration (EC50) was 11.6 ± 1.14 µM in experiment [3]; no less than 75 µM in experiment [4]; 21.6 ± 0.7 µM in experiment [5]; 18.7 ± 1.26 µM in experiment [7]; 19.5 ± 1 µM in experiment [8].

The values are drawn from EP3502109A1, “TRIAZOLE-PHENYL-THIAZOLE HETEROCYCLES AS INNOVATIVE INHIBITORS OF TRYPANOTHIONE REDUCTASE AND THEIR USE AS LEISHMANICIDES” (Consejo Superior De Investigaciones Científicas, priority 2017, dated 2019).
